Assay results: patent US20220362184A1, “GUT-PROTECTIVE COMPOSITIONS COMPRISING BOSWELLIC ACID” (INVENTIA HEALTHCARE LIMITED, priority 2019, published 2022)

Tests used:
[1] = test system: Helicobacter pylori strains; experiment: Micro-broth dilution antimicrobial activity (MIC, CLSI); type: cell-based; conditions: growth inhibited >90% compared to growth control
Procedure: Micro-broth dilution method was used to determine the antimicrobial activity of boswellic acid composition against Helicobacter pylori strains. The anti-bacterial minimum inhibitory concentration (MIC) study was performed as per the Clinical and Laboratory Standards Institute (CLSI) guidelines.
The test compound (composition comprising boswellic acid) was dissolved using Methanol to a concentration of 12.8 mg/mL (stock). Amoxicillin was dissolved in sterile Phosphate buffer to a concentration of 2 mg/mL.

[2] = test system: Dextran Sodium Sulphate (2.5% w/v) induced colitis in BALB/c mice; experiment: Dextran Sodium Sulphate induced colitis, gut-protective effect; type: in vivo
Procedure: The compositions comprising boswellic acids are also evaluated for their gut-protective effect using Dextran Sodium Sulphate (2.5% w/v) induced colitis in BALB/c mice. Body weights of mice were recorded during study period, macroscopic examination was carried out for all terminal sacrificed, moribund and found dead animals. Colon and rectum were collected, and histopathology was performed. The composition comprising boswellic acid was also evaluated for gut-protective effect through antimicrobial activity against Helicobacter pylori strains using Micro-broth dilution method. The anti-bacterial minimum inhibitory concentration (MIC) was checked for the composition against Amoxycillin.
The gut-protective effect of composition comprising boswellic acids was evaluated using Dextran Sodium Sulphate (2.5% w/v) induced colitis in BALB/c mice. Dextran Sodium Sulphate (DSS) (36000 to 50000 Daltons molecular weight) was added in autoclaved drinking water and administered to the animals over 10 days for inducing disease condition. Group 2 served as disease control. Groups 3, 4 and 5 were treated with Test Item 1 (G3), Test Item 2 (G4) and Reference (Sulfasalazine—G5), respectively. Concurrent vehicle control group (G1) was also maintained.
Onset of colitis symptoms was monitored by measuring percent body weight, stool consistency (SC) and fecal occult blood (FOB). During the study period (10 days), Disease Activity Index (DAI) was calculated from scores of percent body weight, SC and FOB and were reported. Treatment was continued along with the DSS administration in drinking water up to 10 days by oral administration of Test and Reference Item as follows: • Group 1—Normal control (no DSS & no treatment) • Group 2—Disease control (only DSS, no treatment) • Group 3—DSS+Boswellic acid composition of Example 2: 41 mg/kg • Group 4—DSS+Boswellic acid composition of Example 4: 41 mg/kg • Group 5—DSS+Sulfasalazine: 30 mg/kg
Body weights were recorded daily throughout the study period. Macroscopic examination was carried out for all the terminal sacrificed, moribund and found dead animals. Colon and rectum were collected, and histopathology was performed.

SMILES | MIC [1] [µg/mL] | percentage of mortality during the study period ([2]; 10 days oral with DSS, compositions 41 mg/kg, sulfasalazine 30 mg/kg) [%] | % body weight change ([2]; Day 10, disease control −20.34%, vehicle control −0.44%) [%] | Mean Disease Activity Index (DAI) ([2]; females, Day 10, disease control 3.9) | Mean Disease Activity Index (DAI) ([2]; males, Day 10, disease control 3.1)
CC1(C)S[C@@H]2[C@H](NC(=O)[C@H](N)c3ccc(O)cc3)C(=O)N2[C@H]1C(=O)O [Amoxicillin] | < 0.25 |  |  |  | 
O=C(O)c1cc(/N=N/c2ccc(S(=O)(=O)Nc3ccccn3)cc2)ccc1O [Sulfasalazine] |  | 20 | −17.77 | 3.2 | 3.6
